Measurements published in PubChem BioAssay (NCI).
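Briefly, cells in 96-well plates were exposed to five compound concentrations for 48 h, and endpoints were estimated by linear interpolation. TGI denotes the concentration required for complete inhibition of growth.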

Tests used:
Test in all cases: NCI anticancer screen, dose series, 48 h
M14 melanoma = system: M14 melanoma
CAKI-1 renal = system: CAKI-1 renal
SN12C renal = system: SN12C renal
NCI-H226 lung = system: NCI-H226 lung
UACC-62 melanoma = system: UACC-62 melanoma
HCT-15 colon = system: HCT-15 colon
NCI-H23 lung = system: NCI-H23 lung
SF-295 CNS = system: SF-295 CNS
A498 renal = system: A498 renal
786-0 renal = system: 786-0 renal
HL-60(TB) leukemia = system: HL-60(TB) leukemia
HCC-2998 colon = system: HCC-2998 colon
HOP-62 NSCLC = system: HOP-62 NSCLC
ACHN renal = system: ACHN renal
OVCAR-4 ovarian = system: OVCAR-4 ovarian
HS 578T breast = system: HS 578T breast
OVCAR-5 ovarian = system: OVCAR-5 ovarian
OVCAR-8 ovarian = system: OVCAR-8 ovarian
RPMI-8226 leukemia = system: RPMI-8226 leukemia
NCI/ADR-RES ovarian = system: NCI/ADR-RES ovarian
K-562 leukemia = system: K-562 leukemia
LOX IMVI melanoma = system: LOX IMVI melanoma
SNB-19 CNS = system: SNB-19 CNS
KM12 colon = system: KM12 colon
CCRF-CEM leukemia = system: CCRF-CEM leukemia
EKVX NSCLC = system: EKVX NSCLC
SNB-75 CNS = system: SNB-75 CNS
U251 CNS = system: U251 CNS
SF-539 CNS = system: SF-539 CNS
MALME-3M melanoma = system: MALME-3M melanoma
MDA-N = system: MDA-N
HT29 colon = system: HT29 colon
PC-3 prostate = system: PC-3 prostate
SF-268 CNS = system: SF-268 CNS
SK-MEL-2 melanoma = system: SK-MEL-2 melanoma
MOLT-4 leukemia = system: MOLT-4 leukemia
IGROV1 ovarian = system: IGROV1 ovarian
UO-31 renal = system: UO-31 renal
DU-145 prostate = system: DU-145 prostate
SW-620 colon = system: SW-620 colon
T-47D breast = system: T-47D breast
SR leukemia = system: SR leukemia
UACC-257 melanoma = system: UACC-257 melanoma
SK-OV-3 ovarian = system: SK-OV-3 ovarian
MDA-MB-435 = system: MDA-MB-435
COLO 205 colon = system: COLO 205 colon
SK-MEL-28 melanoma = system: SK-MEL-28 melanoma
SK-MEL-5 melanoma = system: SK-MEL-5 melanoma
MCF7 breast = system: MCF7 breast
A549 NSCLC = system: A549 NSCLC
NCI-H460 lung = system: NCI-H460 lung
MDA-MB-231 breast = system: MDA-MB-231 breast
HCT-116 colon = system: HCT-116 colon
TK-10 renal = system: TK-10 renal
NCI-H522 lung = system: NCI-H522 lung
RXF 393 renal = system: RXF 393 renal
OVCAR-3 ovarian = system: OVCAR-3 ovarian

Compound O=C(/C=C/c1ccsc1)c1ccc(Cl)cc1 has a TGI (M14 melanoma) of over 100 µM, a TGI (CAKI-1 renal) of over 100 µM and a TGI (SN12C renal) of over 100 µM. For the same compound, the TGI (NCI-H226 lung) was over 100 µM, the TGI (UACC-62 melanoma) was over 100 µM and the TGI (HCT-15 colon) was over 100 µM. The TGI (NCI-H23 lung) was over 100 µM, the TGI (SF-295 CNS) was over 100 µM and the TGI (A498 renal) was over 100 µM. It also gave a TGI (786-0 renal) of over 100 µM, a TGI (HL-60(TB) leukemia) of 49.8 µM and a TGI (HCC-2998 colon) of over 100 µM. It also gave a TGI (HOP-62 NSCLC) of over 100 µM, a TGI (ACHN renal) of over 100 µM and a TGI (OVCAR-4 ovarian) of over 100 µM. For the same compound, the TGI (HS 578T breast) was over 100 µM, the TGI (OVCAR-5 ovarian) was over 100 µM and the TGI (OVCAR-8 ovarian) was over 100 µM. It also gave a TGI (RPMI-8226 leukemia) of 64.8 µM, a TGI (NCI/ADR-RES ovarian) of over 100 µM and a TGI (K-562 leukemia) of 95.7 µM. The TGI (LOX IMVI melanoma) was 47.8 µM, the TGI (SNB-19 CNS) was over 100 µM and the TGI (KM12 colon) was over 100 µM. For the same compound, the TGI (CCRF-CEM leukemia) was 53.3 µM, the TGI (EKVX NSCLC) was over 100 µM and the TGI (SNB-75 CNS) was over 100 µM. It also gave a TGI (U251 CNS) of over 100 µM, a TGI (SF-539 CNS) of over 100 µM and a TGI (MALME-3M melanoma) of 95.3 µM. For the same compound, the TGI (MDA-N) was over 100 µM, the TGI (HT29 colon) was over 100 µM and the TGI (PC-3 prostate) was over 100 µM. It also gave a TGI (SF-268 CNS) of over 100 µM, a TGI (SK-MEL-2 melanoma) of over 100 µM and a TGI (MOLT-4 leukemia) of 43.7 µM. For the same compound, the TGI (IGROV1 ovarian) was over 100 µM, the TGI (UO-31 renal) was over 100 µM and the TGI (DU-145 prostate) was over 100 µM. For the same compound, the TGI (SW-620 colon) was over 100 µM, the TGI (T-47D breast) was over 100 µM and the TGI (SR leukemia) was 43.7 µM. For the same compound, the TGI (UACC-257 melanoma) was over 100 µM, the TGI (SK-OV-3 ovarian) was over 100 µM and the TGI (MDA-MB-435) was over 100 µM. For the same compound, the TGI (COLO 205 colon) was over 100 µM, the TGI (SK-MEL-28 melanoma) was over 100 µM and the TGI (SK-MEL-5 melanoma) was over 100 µM. For the same compound, the TGI (MCF7 breast) was over 100 µM, the TGI (A549 NSCLC) was over 100 µM and the TGI (NCI-H460 lung) was over 100 µM. For the same compound, the TGI (MDA-MB-231 breast) was over 100 µM, the TGI (HCT-116 colon) was over 100 µM and the TGI (TK-10 renal) was over 100 µM.
CC(=O)CC1(OC(=O)C2C(C=C(C)C)C2(C)C)C(=O)Nc2ccccc21 (stereo not given) showed a TGI (M14 melanoma) of over 100 µM, a TGI (CAKI-1 renal) of over 100 µM and a TGI (SN12C renal) of over 100 µM. The TGI (NCI-H226 lung) was over 100 µM, the TGI (UACC-62 melanoma) was over 100 µM and the TGI (HCT-15 colon) was over 100 µM. For the same compound, the TGI (NCI-H23 lung) was over 100 µM, the TGI (SF-295 CNS) was over 100 µM and the TGI (NCI-H522 lung) was over 100 µM. It also gave a TGI (A498 renal) of over 100 µM, a TGI (786-0 renal) of over 100 µM and a TGI (HL-60(TB) leukemia) of over 100 µM. It also gave a TGI (HCC-2998 colon) of over 100 µM, a TGI (HOP-62 NSCLC) of over 100 µM and a TGI (ACHN renal) of over 100 µM. It also gave a TGI (RXF 393 renal) of over 100 µM, a TGI (OVCAR-4 ovarian) of over 100 µM and a TGI (HS 578T breast) of over 100 µM. For the same compound, the TGI (OVCAR-5 ovarian) was over 100 µM, the TGI (OVCAR-8 ovarian) was over 100 µM and the TGI (RPMI-8226 leukemia) was over 100 µM. For the same compound, the TGI (NCI/ADR-RES ovarian) was over 100 µM, the TGI (K-562 leukemia) was over 100 µM and the TGI (LOX IMVI melanoma) was over 100 µM. For the same compound, the TGI (SNB-19 CNS) was over 100 µM, the TGI (KM12 colon) was over 100 µM and the TGI (CCRF-CEM leukemia) was over 100 µM. The TGI (EKVX NSCLC) was over 100 µM, the TGI (SNB-75 CNS) was over 100 µM and the TGI (U251 CNS) was over 100 µM. It also gave a TGI (SF-539 CNS) of over 100 µM, a TGI (MALME-3M melanoma) of over 100 µM and a TGI (MDA-N) of over 100 µM. It also gave a TGI (HT29 colon) of over 100 µM, a TGI (PC-3 prostate) of over 100 µM and a TGI (SF-268 CNS) of over 100 µM. It also gave a TGI (SK-MEL-2 melanoma) of over 100 µM, a TGI (MOLT-4 leukemia) of over 100 µM and a TGI (IGROV1 ovarian) of over 100 µM. It also gave a TGI (OVCAR-3 ovarian) of over 100 µM, a TGI (UO-31 renal) of over 100 µM and a TGI (DU-145 prostate) of over 100 µM. It also gave a TGI (SW-620 colon) of over 100 µM, a TGI (T-47D breast) of over 100 µM and a TGI (SR leukemia) of over 100 µM. The TGI (UACC-257 melanoma) was over 100 µM, the TGI (SK-OV-3 ovarian) was over 100 µM and the TGI (MDA-MB-435) was over 100 µM. For the same compound, the TGI (COLO 205 colon) was over 100 µM, the TGI (SK-MEL-28 melanoma) was over 100 µM and the TGI (SK-MEL-5 melanoma) was over 100 µM. It also gave a TGI (A549 NSCLC) of over 100 µM, a TGI (NCI-H460 lung) of over 100 µM and a TGI (MDA-MB-231 breast) of over 100 µM. The TGI (HCT-116 colon) was over 100 µM and the TGI (TK-10 renal) was over 100 µM.
